From US20190022257A1, “ULTRAFINE NANOPARTICLES AS AN IMAGING AGENT FOR DIAGNOSING A RENAL DISORDER” (priority 2016, published 2019)
“Also recorded” adds a separate entry of the source.

Columns and labels:
UUO kidney [1] = assay: Dynamic MRI measurement of the enhancement in the kidney, UUO mice (Example 3); assay type: in vivo; conditions: DOTAREM 10 mM, Example 1 nanoparticles 5 mM
Description: The images were acquired with a 7T 300 MHz spectrometer imager, equipped with a linear 1H radiofrequency coil dedicated to mice (Bruker, Karlsruhe, Germany).
The dynamic MRI studies of capture and release of the nanoparticles in the tissues were carried out in vivo and made it possible to determine the change in enhancement in the kidney.
All the manipulations of the animals were carried out in compliance with the institutional animal protocol guidelines in place at Paris Descartes University, submission CEEA34.JS.142.1 and approved by the Institute's animal research committee, and also the ethics protocols of the company regarding mouse inductions. […]
8-week-old female mice of BalbC/JRJ type (n=6) were UUO-treated at just one kidney, i.e. each mouse comprises one lesioned kidney (UUO kidney) and one healthy kidney (reference kidney). […] The physiological respiratory parameters were measured throughout the MRI studies using a nonmagnetic respiratory sensor system (the company SAM, US) and the body temperature was maintained by heating the cradle to the core. […]
A dynamic contrast enhanced DCE sequence was recorded using a specific sequence eliminating the free artefacts of movement in post treatment with a TR of 100 ms and a TE of 4 ms and a tilt angle of 80° in order to ensure T1 MRI weighting; a field of view (FOV) of 3 cm×3 cm and a final matrix of 256 by 256 points. […]

UUO kidney [2] = assay: High temporal resolution DCE perfusion MRI, UUO model (Example 4); assay type: in vivo, female BalbC/JRJ mice; conditions: DOTAREM 10 mM
Description: It provides kinetic profiles of signal enhancement corresponding to the immediate arrival of the imaging agent in the tissue, in particular for probing the first glomerular pass.
The UUO model is induced by clamping the right ureter of female BalbC/JRJ mice according to a biochemically characterized protocol from the literature. All the manipulations of the animals were carried out in compliance with the institutional animal protocol guidelines described in Example 3.
8-week-old female mice of BalbC/JRJ type (n=6) were UUO-treated at the level of just one kidney, i.e. each mouse comprises one lesioned kidney (UUO kidney) and one healthy kidney (reference kidney). A batch of sham mice makes it possible to verify the validity of the contralateral reference with the MRI method developed. 2 batches of n=6 mice and n=6 shams were studied by dynamic MRI 3 days after induction.
The DCE MRI acquisition protocol consists in injecting the two types of imaging agents: reference DOTAREM and AGuIX, namely:
Solution according to the invention: 100 μl of imaging agent dissolved in a 0.9% saline solution, with a 5 mM concentration of AGuIX imaging agent.
Prior art solution: 100 μl of imaging agent dissolved in a 0.9% saline solution with 10 mM concentration of DOTAREM imaging agent. • i) The administration protocol is that of Example 3. • ii) The MRI acquisition protocol itself consists in recording sequential images by means of the T1-weighted FLASH MRI sequence (TR=TE=2.2 ms, spatial resolution 117×310 μm^2), temporal resolution 2.5 s for 10 min with 20 s of precontrast. […] T1 mapping in order to verify the concentration of Gd MRI agent is recorded. • iii) The digital processing method derived from method termed 3TP, three time Points, consists in defining 3 main points: basic reference intensity, point of maximum intensity of enhancement, final clearance time, and calculating the slopes of capture and of release of the agent. Next, a Mann-Whitney biostatistical study is applied to the slope parameters calculated for each of the 6 mice, and for each imaging agent.
Averaged collective method resulting in the value of T1max: • a) Searching for the time T corresponding to the maximum in the overall mean of the DCE MRI intensities. • b) Applying this max to each enhancement profile as Tmax. • c) Taking the mean of 6 enhancement values around the indexed value.

[3] = tested on: glomerular and tubular renal disorder model induced by injection of anti-gbm antibodies; assay: Arterial input function (AIF) by DCE MRI in anti-gbm glomerular and tubular renal disorder model with therapy (Example 6); assay type: in vivo, male CBA mice; conditions: d7 and d14 post-induction, AGuIX 5 mM, DOTAREM 10 mM, 100 μl bolus
Description: The high temporal resolution DCE perfusion method with a period 2.5 s for 10 min, with injection of the imaging agent as a 100 μl bolus at […] (method described in Example 4) was applied on another model of glomerular and tubular renal disorder, i.e. model induced by injection of anti-gbm antibodies in the literature.
The DCE MRI acquisition protocol consists in injecting the two types of agents: reference DOTAREM or AGuIX, namely:
solution according to the invention: 100 μl of imaging agent dissolved in a 0.9% saline solution, with a 5 mM concentration of AguIX imaging agent, and
solution according to the prior art: 100 μl of imaging agent dissolved in a 0.9% saline solution, with a 10 mM concentration of DOTAREM imaging agent. […]
An additional parameter corresponding to the arrival of the imaging tracer in the organ, i.e. arterial input function AIF, was also recorded. Measured at the input of the organ studied, the AIF itself at the input of the kidney is an indicator of the functionality. The profile is recorded on the anatomical MRI image at the level of the renal arterial point on the dynamic images acquired at DCE high temporal resolution proposed. […]

## CNC[C@H](O)[C@@H](O)[C@H](O)[C@H](O)CO.O=C([O-])CN1CCN(CC(=O)[O-])CCN(CC(=O)O)CCN(CC(=O)[O-])CC1.[Gd+3] [DOTAREM]
UUO kidney [1]; intravenous, 100 μl, UUO mice
  discrimination between healthy kidney and lesioned (UUO) kidney by MRI enhancement: cannot discriminate between a healthy kidney and a lesioned kidney; also recorded: does not make it possible to significantly differentiate renal functionality of a healthy kidney and of an obstructed kidney; also recorded: does not make it possible to distinguish a healthy kidney from a kidney suffering from a renal disorder
UUO kidney [1]; time course by MRI after intravenous administration
  enhancement profile in the renal cortex, UUO kidney vs reference kidney: enhancement profile is similar between UUO kidney (lesioned kidney) and reference kidney (healthy kidney)
UUO kidney [2]; UUO model, AGuIX 5 mM
  decrease of DCE MRI signal between healthy and pathological kidney condition: 100%
  decrease of DCE MRI signal between healthy and pathological kidney condition, as factor: 2
UUO kidney [2]; intravenous, Example 1 nanoparticles 5 mM
  discrimination between healthy kidney and lesioned kidney (high time resolution DCE MRI): cannot discriminate between a healthy kidney and a lesioned kidney
UUO kidney [2]; intravenous, Example 1 nanoparticles 5 mM, 3 days after induction
  enhancement profile in the renal cortex, UUO kidney vs reference kidney (high time resolution DCE MRI, Mann-Whitney improved 3TP): enhancement profile is similar between UUO kidney (lesioned kidney) and reference kidney (healthy kidney)
[3]
  AIF at the kidney input, control (carrier) mice vs MP mice: identical
